# Measurements taken from patent US20010036955A1, “Method of inhibiting angiogenesis” (Genentech, Inc., priority 1998, published 2001).
# Legend:
# [1] = test system: VEGF-stimulated angiogenesis in rat cornea; assay: Corneal angiogenesis assay (Hydron pellet with VEGF); type: in vivo, Sprague-Dawley rats
# Protocol: A 1.5 mm incision was made approximately 1 mm from the center of the cornea of isoflurane-ketamine (60-80 mg/kg) xylazine (10-15 mg/kg) anesthetized Sprague-Dawley rats. Using a curved spatula, the incision was bluntly dissected through the stroma towards the outer canthus of the eye. A Hydron pellet […] containing VEGF (200 ng), sucralfate (100 μg) with or without (control) 15d-PGJ2 (10 μg/pellet) was inserted into the base of the pocket. After surgery, the eyes were coated with gentamicin ointment. Animals are observed at 24-48 hr for the occurrence of nonspecific inflammation and then daily thereafter. At day 6, the animals were euthanized and injected with FITC-dextran to allow for visualization of the vasculature. Corneal whole mounts were made of the enucleated eyes and analyzed for neovascular area using the computer assisted image analysis.
# Flk/KDR mRNA = assay: Real time RT-PCR (Taqman) assay in HUVEC; type: cell-based, human; conditions: HUVEC in three dimensional collagen gels; VEGF, bFGF, PMA; 10:M 15d-PGJ2
# Protocol: (§1) This technique has been used to quantitatively monitor mRNA expression and has been described in detail previously (Heid, C. A. et al., (1996) Genome Methods 6:986-994; Gerber, H. et al., (1997) J. Biol. Chem. 272:23659-23667). Total RNA was extracted from HUVEC cultured in three dimensional collagen gels or on collagen-coated flasks for various times in 1× basal medium consisting of M199 supplemented with 1%FBS, 1× ITS, 2 mM L-glutamine, 50 μg/ml ascorbic acid, 26.5 mM NaHCO3, 100 U/ml penicillin and 100 U/ml streptomycin supplemented with 40 ng/ml bFGF (basic fibroblast growth factor), 40 ng/ml VEGF and 80 nM PMA […]. […] The primers and probes used were as follows: […] forward primer 5′-[…]-3′ (SEQ ID NO: 7), reverse primer 5′-CACCATCGCGACCAGATG-3′ (SEQ ID NO: 8), and probe 5′-[…]-3′ (SEQ ID NO: 9); […] forward primer 5′-TGACCTGCGGCAACTGG-3′ (SEQ ID NO: 10), reverse primer 5′-[…]-3′ (SEQ ID NO: 11), and probe 5′-[…]-3′ (SEQ ID NO: 12); human PPARβ gene forward primer 5′-[…]-3′ (SEQ ID NO: 13), reverse primer 5′-[…]-3′ (SEQ ID NO: 14), and probe 5′-[…]-3′ (SEQ ID NO: 15); human Flk/KDR gene forward primer 5′-[…]-3′ (SEQ ID NO: 16), reverse primer 5′-[…]-3′ (SEQ ID NO: 17), and probe 5′-[…]-3′ (SEQ ID NO: 18); human Flt-1 gene forward primer 5′-[…]-3′ (SEQ ID NO: 19), reverse primer 5′-[…]-3′ (SEQ ID NO: 20), and probe 5′-[…]-3′ (SEQ ID NO: 21); human uPA gene forward primer 5′-[…]-3′ (SEQ ID NO: 22), reverse primer 5′-GCGCACACCTGCCCTC-3′ (SEQ ID NO: 23), and probe 5′-[…]-3′ (SEQ ID NO: 24); human PAI-1 gene forward primer 5′-TCGTCCAGCGGGATCTGA-3′ (SEQ ID NO: 25), reverse primer 5′-GTGCTCCGGAACAGCCTG-3′ (SEQ ID NO: 26), and probe 5′-[…]-3′ (SEQ ID NO: 27); human glyceraldehyde-3-phosphate dehydrogenase (GAPDH) gene forward 5′-GAAGGTGAAGGTCGGAGTC-3′ (SEQ ID NO: 28), reverse 5′-[…]-3′ (SEQ ID NO: 29), and probe 5′-[…]-3′ (SEQ ID NO: 30). Total RNA (100 ng) was added to a 50 μl RT-PCR reaction mixture according to the manufacturer's protocol (Roche Molecular Systems, Inc., Branchburg, N.J.). The thermal cycling conditions included 1 cycle at 48° C. for 30 min, 1 cycle at 95° C. for 10 min, 40 cycles at 95° C. for 15 s, at 60° C. for 1 min and finally hold at 25° C. for 2 min. Standard curves for expression of each gene were generated by serial dilution of the total RNA isolated from HUVEC. […] Therefore, the relative mRNA expression of each gene was normalized to the level of GAPDH in the same RNA preparation.
# PAI-1 mRNA = assay: Real time RT-PCR (Taqman) assay in HUVEC; type: cell-based, human; conditions: at 24 hr; HUVEC in three dimensional collagen gels; 10:M 15d-PGJ2
# Protocol: as §1
# Flt-1 mRNA = assay: Real time RT-PCR (Taqman) assay in HUVEC; type: cell-based, human; conditions: HUVEC in three dimensional collagen gels; VEGF, bFGF, PMA; 10:M 15d-PGJ2
# Protocol: as §1
# uPA mRNA = assay: Real time RT-PCR (Taqman) assay in HUVEC; type: cell-based, human; conditions: at 4 hr; HUVEC in three dimensional collagen gels; 10:M 15d-PGJ2
# Protocol: as §1
# HUVEC proliferation = assay: Proliferation assay (BrdU incorporation); type: cell-based, human; conditions: type I collagen-coated surface, VEGF, bFGF and PMA, read-out: inhibition of endothelial cell (HUVEC) proliferation, IC50
# Protocol: Cells were cultured in above medium in the presence of drugs or vehicle for 4 hr. 5 μl (100 μM) of 5′-bromo-2′-deoxyuridine (BrdU) was added in a final volume of 100 μl/well and cells were incubated for another 20 hr. BrdU incorporation was evaluated by an ELISA kit from Boehringer Mannheim (Indianapolis, Ind.).
compound,measurement,setting,value
"CCCCC/C=C/C=C1/C(=O)C=CC1C/C=C\CCCC(=O)O (stereo not shown) [15d-PGJ2, 15-deoxy-delta^12,14-PGJ2]",area of new vessels (FIG. 4C),"[1]; 200 ng/pellet VEGF and 10 μg/ml 15d-PGJ2, day 6 postimplantation, p<0.05, Mann-Whitney",significantly different from VEGF alone group
same,vessel length compared to VEGF only (positive) controls,"[1]; Hydron pellet, 200 ng VEGF with 10 μg 15d-PGJ2, rat cornea",significant reduction
same,KDR mRNA induction by growth factors,Flk/KDR mRNA,inhibited the induction
same,PAI-1 gene expression,PAI-1 mRNA,increased
same,Flt-1 mRNA induction by growth factors,Flt-1 mRNA,inhibited the induction
same,uPA mRNA,uPA mRNA,reduced
same,IC50,HUVEC proliferation,2.4 µM
